This note sets out measurements from US20130296311A1, “INHIBITORS OF HCV NS5A” (PRESIDIO PHARMACEUTICALS, INC., priority 2010, published 2013).

The assay has as its system HCV 1b_Huh-Luc/Neo-ET cell line persistently expressing a bicistronic genotype 1b replicon in Huh 7 cells. The experiment in a line: HCV replicon assay (luciferase readout, 72 h). Conditions: Hepatitis C virus. The assay is classed as cell-based, HCV genotype 1b. An outline of the steps:
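Huh 7 cells carrying a bicistronic genotype 1b luciferase/neo replicon received compound in triplicate the day after plating. After 72 h, replicon levels were read as Bright-Glo luciferase activity, expressed as % of control; EC50 was fitted with a four-parameter logistic and determined several times.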

Where [1] appears, read: Huh-7, read-out: Inhibition of HCV genotype 1b.
Where [2] appears, read: Huh-7, 72 h, read-out: Inhibition of HCV genotype 1b.

Molecules are shown by their SMILES. Read-outs that look alike come from different tables or passages of the source. Where only a bound is given, the exact number is not on record here.

For `COC(=O)N[C@H](C(=O)N1CCC[C@H]1c1ncc(-c2ccc(C#Cc3ccc4c(ccc5nc([C@@H]6CCCN6C(=O)[C@@H](NC(=O)OC)[C@@H](C)OC)[nH]c54)c3)cc2)[nH]1)C(C)C` [Compound 1271], the EC50 under setting [1] was < 1 nM.

`CC[C@H](NC(=O)OC)C(=O)N1CCC[C@H]1c1ncc(-c2ccc(C#Cc3ccc(-c4cnc([C@@H]5CCCN5C(=O)[C@H](CC)NC(=O)OC)[nH]4)cc3)cc2)[nH]1` [Compound 960]: under setting [2], the EC50 was < 1 nM.

For the compound `COC(=O)N[C@@H](C(=O)N1CCC[C@H]1c1ncc(-c2ccc(C#Cc3ccc(-c4cnc([C@@H]5CCCN5C(=O)[C@H](NC(=O)N5CCC[C@H]5C)c5ccccc5)[nH]4)cc3)cc2)[nH]1)c1ccccc1` [Compound 262], under setting [2], the EC50 is < 1 nM.

In the case of `O=C(N[C@@H](C(=O)N1CCC[C@H]1c1ncc(-c2ccc(C#Cc3ccc(-c4cnc([C@@H]5CCCN5C(=O)[C@H](NC(=O)N5CC[C@H](O)C5)c5ccccc5)[nH]4)cc3)cc2)[nH]1)c1ccccc1)N1CC[C@H](O)C1` [Compound 245], the EC50 under setting [2] was < 1 nM.

Turning to `COC(=O)N[C@H](C(=O)N1CCC[C@H]1c1nc2ccc(C#Cc3ccc4c(ccc5nc([C@@H]6CCCN6C(=O)[C@@H](NC(=O)OC)C(C)C)[nH]c54)c3)cc2[nH]1)C(C)C` [Compound 1273], under setting [1], the EC50 was < 1 nM.

Consider `COC(=O)N[C@H](C(=O)N1CCC[C@H]1c1ncc(-c2ccc(C#Cc3ccc(-c4cnc([C@@H]5CCCN5C(=O)[C@@H](c5ccccc5)N5CCN(C)CC5)[nH]4)cc3)cc2)[nH]1)C(C)C` [Compound 957], for which, under setting [2], the EC50 is < 1 nM.

On to `COC(=O)N[C@@H](C(=O)N1CCC[C@H]1c1ncc(-c2ccc(C#Cc3ccc(C(=O)NC[C@@H]4CCCN4C(=O)[C@@H](c4ccccc4)N(C)C)cc3)cc2)[nH]1)c1ccccc1` [Compound 234], for which the EC50 under setting [2] is < 1 nM.

Turning to `CC(C)(C)OC(=O)N[C@@H](C(=O)N1CCC[C@H]1c1ncc(-c2ccc(C#Cc3ccc4nc([C@@H]5CCCN5C(=O)[C@H](NC(=O)OC(C)(C)C)c5ccccc5)[nH]c4c3)cc2)[nH]1)c1ccccc1` [Compound 801], the EC50 under setting [2] was < 1 nM.

`COC(=O)NC(C(=O)N1CCC[C@H]1c1nc2ccc(C#Cc3ccc4cc(-c5cnc([C@@H]6CCCN6C(=O)[C@@H](NC(=O)OC)C6CCOCC6)[nH]5)ccc4n3)cc2[nH]1)C(C)C` (stereo partly drawn) [Compound 1290]: the EC50 under setting [1] was < 1 nM.

`COC(=O)N[C@@H](C(=O)N1CCC[C@H]1c1ncc(-c2ccc(C#Cc3ccc(-c4cnc([C@@H]5CCCN5C(=O)[C@H](NS(C)(=O)=O)c5ccccc5)[nH]4)cc3)cc2)[nH]1)c1ccccc1` [Compound 225]: the EC50 under setting [2] is < 1 nM.

Consider `O=C([C@@H](c1ccccc1)N1CCCC1)N1CCC[C@H]1c1ncc(-c2ccc(C#Cc3ccc(-c4cnc([C@@H]5CCCN5C(=O)[C@@H](c5ccccc5)N5CCCC5)[nH]4)cc3)cc2)[nH]1` [Compound 194], for which, under setting [2], the EC50 is < 1 nM.

In the case of `C[C@H](NC(=O)[C@@H]1CCCN1C(=O)[C@H](NC(=O)C1CC1)c1ccccc1)c1ccc(C#Cc2cnc([C@@H]3CCCN3C(=O)[C@H](NC(=O)C3CC3)c3ccccc3)[nH]2)cc1` [Compound 132], under setting [2], the EC50 was in the range of 10 to 999 nM.

With `COC(=O)N[C@@H](CC(C)C)C(=O)N1CCC[C@H]1c1ncc(-c2ccc(C#Cc3ccc(-c4cnc([C@@H]5CCCN5C(=O)[C@H](CC(C)C)NC(=O)OC)[nH]4)cc3)cc2)[nH]1` [Compound 961], under setting [2], the EC50 is < 1 nM.

As for `CC(C)(C)OC(=O)N[C@@H](C(=O)N1CCC[C@H]1C(=O)Nc1ccc(C#Cc2cnc([C@@H]3CCCN3C(=O)[C@H](NC(=O)OC(C)(C)C)c3ccccc3)[nH]2)cc1)c1ccccc1` [Compound 115], under setting [2], the EC50 was < 1 nM.

On to `COC(=O)N[C@H](C(=O)N1CCC[C@H]1c1ncc(-c2ccc3cc(C#Cc4[nH]c([C@@H]5CCCN5C(=O)[C@@H](NC(=O)OC)C5CCOCC5)nc4C(F)(F)F)ccc3c2)[nH]1)C1CCOCC1` [Compound 1256], for which the EC50 under setting [1] was < 1 nM.

Turning to `COC(=O)NC1(C(=O)N2CCC[C@H]2c2ncc(-c3ccc(C#Cc4ccc5nc([C@@H]6CCCN6C(=O)C6(NC(=O)OC)CCCC6)[nH]c5c4)cc3)[nH]2)CCCC1` [Compound 1044], the EC50 under setting [2] was 10 to 999 nM.

With `CC(C)(C)OC(=O)N[C@@H](C(=O)N1CCC[C@H]1C(=O)NCc1ccc(C#Cc2cnc([C@@H]3CCCN3C(=O)[C@H](NC(=O)OC(C)(C)C)c3ccccc3)[nH]2)cc1)c1ccccc1` [Compound 119], the EC50 under setting [2] is < 1 nM.

For `COC[C@H](NC(=O)OC)C(=O)N1CCC[C@H]1c1ncc(-c2ccc(C#Cc3ccc4nc([C@@H]5CCCN5C(=O)[C@H](COC)NC(=O)OC)[nH]c4c3)cc2)[nH]1` [Compound 1037], the EC50 under setting [2] was < 1 nM.

Consider `COC(=O)N[C@@H](C(=O)N1CCC[C@H]1c1ncc(C#Cc2ccc(C#Cc3cnc([C@@H]4CCCN4C(=O)[C@H](NC(=O)OC)c4ccccc4)[nH]3)cc2)[nH]1)c1ccccc1` [Compound 304], for which the EC50 under setting [2] was < 1 nM.

With `O=C(N[C@@H](C(=O)N1CCC[C@H]1c1nc(-c2ccc3cc(C#Cc4cnc([C@@H]5CCCN5C(=O)[C@H](NC(=O)N5CCOCC5)c5ccccc5)[nH]4)ccc3c2)c[nH]1)c1ccccc1)N1CCOCC1` [Compound 808], the EC50 under setting [2] is < 1 nM.

Regarding `COC(=O)N[C@@H](C(=O)N1CCC[C@H]1c1nc2ccc(C#Cc3ccc4nc([C@@H]5CCCN5C(=O)[C@H](NC(=O)OC)C(C)C)[nH]c4c3)cc2[nH]1)C(C)C` [Compound 853], the EC50 (Huh-7, 72 h, read-out: Inhibition of HCV) is < 1 nM.

`COC(=O)N[C@H](C(=O)N1CCC[C@H]1c1ncc(-c2ccc(C#Cc3ccc4nc([C@@H]5CCCN5)[nH]c4c3)cc2)[nH]1)C(C)C` [Compound 1056]: the EC50 under setting [2] is 10 to 999 nM.

As for `COC(=O)N[C@H](C(=O)N1CCC[C@H]1c1ncc(-c2ccc(C#Cc3ccc(-c4cnc([C@@H]5CCCN5C(=O)[C@@H](NC(=O)OC)[C@@H](C)OC)[nH]4)cc3)cc2)[nH]1)C(C)C` [Compound 972], the EC50 under setting [2] was < 1 nM.

As to `CC(C)[C@H](NC(=O)N1CC[C@H](O)C1)C(=O)N1CCC[C@H]1c1ncc(-c2ccc(C#Cc3ccc(-c4cnc([C@@H]5CCCN5C(=O)[C@@H](NC(=O)N5CC[C@H](O)C5)C(C)C)[nH]4)cc3)cc2)[nH]1` [Compound 988], the EC50 under setting [2] was 10 to 999 nM.

Regarding `COC(=O)N[C@H](C(=O)N1CCC[C@H]1c1nc(-c2ccc3cc(C#Cc4cnc([C@@H]5CCCN5C(=O)[C@@H](NC(=O)OC)C(C)C)[nH]4)ccc3c2)c[nH]1)c1ccccc1` [Compound 1078], the EC50 under setting [2] is < 1 nM.

On to `O=C(NCC(=O)N1CCC[C@H]1c1ncc(C#Cc2ccc(-c3cnc([C@@H]4CCCN4C(=O)CNC(=O)C4CC4)[nH]3)cc2)[nH]1)C1CC1` [Compound 113], for which the EC50 under setting [2] is 10 to 999 nM.

As for `O=C(N[C@@H](C(=O)N1CCC[C@H]1c1ncc(C#Cc2ccc(-c3cnc([C@@H]4CCCN4C(=O)[C@H](NC(=O)C4CC4)c4ccccc4)[nH]3)cc2)[nH]1)c1ccccc1)C1CC1` [Compound 100], the EC50 under setting [2] was < 1 nM.

Turning to `C[C@H]1OC(=O)N[C@@H]1C(=O)N1CCC[C@H]1c1ncc(-c2ccc(C#Cc3ccc(-c4cnc([C@@H]5CCCN5C(=O)[C@H]5NC(=O)O[C@@H]5C)[nH]4)cc3)cc2)[nH]1` [Compound 979], the EC50 under setting [2] was in the range of 10 to 999 nM.

In the case of `CC(C)[C@H](NC(=O)N1CCCC1)C(=O)N1CCC[C@H]1c1ncc(-c2ccc(C#Cc3ccc(-c4cnc([C@@H]5CCCN5C(=O)[C@@H](NC(=O)N5CCCC5)C(C)C)[nH]4)cc3)cc2)[nH]1` [Compound 288], the EC50 under setting [2] is > 1000 nM.

Turning to `CC(C)[C@H](NC(=O)[C@H](NC(=O)OC(C)(C)C)c1ccccc1)c1ncc(-c2ccc(C#Cc3ccc(-c4cnc([C@@H]5CCCN5C(=O)[C@H](NC(=O)OC(C)(C)C)c5ccccc5)[nH]4)cc3)cc2)[nH]1` [Compound 281], the EC50 under setting [2] was in the range of 1 to 9.9 nM.

`COC(=O)N[C@H](C(=O)N1CCC[C@H]1c1ncc(-c2ccc(C#Cc3ccc(-c4cnc([C@@H]5CCCN5C(=O)[C@H](C(C)C)N5CCOC5=O)[nH]4)cc3)cc2)[nH]1)C(C)C` [Compound 996]: the EC50 under setting [2] was < 1 nM.

On to `COC(=O)N[C@H](C(=O)N1CCC[C@H]1c1ncc(-c2ccc(C#Cc3ccc(-c4cnc([C@@H]5CCCN5C(=O)[C@H](C(C)C)N(C)C)[nH]4)cc3)cc2)[nH]1)C(C)C` [Compound 953], for which the EC50 under setting [2] is 1 to 9.9 nM.

As to `COC(=O)N[C@H](C(=O)N[C@@H](C)c1ncc(-c2ccc(C#Cc3ccc4nc([C@@H]5CCCN5C(=O)[C@@H](NC(=O)OC)C(C)C)[nH]c4c3)cc2)[nH]1)C(C)C` [Compound 1225], under setting [1], the EC50 was < 1 nM.

With `O=C(N[C@@H](C(=O)N1CCC[C@H]1c1ncc(C#Cc2ccc(-c3cnc([C@@H]4CCCN4C(=O)[C@H](NC(=O)N4CCOCC4)c4ccccc4)[nH]3)cc2)[nH]1)c1ccccc1)N1CCOCC1` [Compound 102], the EC50 under setting [2] was 1 to 9.9 nM.

Regarding `COC(=O)N[C@H](C(=O)N1CCC[C@H]1c1ncc(-c2ccc(C#Cc3ccc(-c4cnc([C@@H]5CCCN5C(=O)[C@@H](NC(=O)OC)C(C)C)[nH]4)cn3)cc2)[nH]1)C(C)C` [Compound 1009], the EC50 under setting [2] was < 1 nM.

In the case of `COC(=O)N[C@@H](C(=O)N1CCC[C@H]1c1ncc(-c2ccc(C#Cc3ccc(-c4cnc([C@@H]5CCCN5C(=O)[C@H](NC(=O)N5CCC(C)(O)CC5)c5ccccc5)[nH]4)cc3)cc2)[nH]1)c1ccccc1` [Compound 273], the EC50 under setting [2] is < 1 nM.

Consider `CC(C)[C@@H](NC(=O)C1CC1)C(=O)N1CCC[C@H]1c1ncc(C#Cc2ccc(C#Cc3cnc([C@@H]4CCCN4C(=O)[C@H](NC(=O)C4CC4)C(C)C)[nH]3)cc2)[nH]1` [Compound 302], for which, under setting [2], the EC50 is > 1000 nM.

Regarding `COC(=O)N[C@@H](C(=O)N1CCC[C@H]1c1ncc(-c2ccc(C#Cc3ccc(-c4cnc([C@@H]5CCCN5C(=O)[C@H](NC(=O)OC)c5ccccc5)[nH]4)cc3)cc2)[nH]1)c1ccccc1` [Compound 156], the EC50 under setting [2] was < 1 nM.

Regarding `COC(=O)N[C@H](C(=O)N1CCC[C@H]1c1ncc(-c2ccc(C#Cc3ccc(-c4cnc([C@@H]5CCCN5C(=O)[C@H](NC(=O)OC)c5ccccc5)[nH]4)cc3)cc2)[nH]1)C(C)C` [Compound 1002], under setting [2], the EC50 was < 1 nM.
